Columns and labels:
Format in all cases: cell-based
[1] = tested on: Human umbilical vein endothelial cells (HUVECs); experiment: LC/MS proteomics of HUVECs treated with EPA or DHA and challenged with IL-6; details: for number of proteins whose expression was significantly repressed / number of proteins whose expression was significantly stimulated: compared with IL-6 alone
Procedure: Human umbilical vein endothelial cells (HUVECs) were isolated into primary cultures from female donors by Clonetics (San Diego, California) and purchased as proliferating cells. All cell culture donors were healthy, with no pregnancy or prenatal complications. The cultured cells were incubated in 95% air/5% CO2 at 37° C. and passaged by an enzymatic (trypsin) procedure. The confluent cells (4 to 5×10^5 cells/35 mm dish) were placed with minimum essential medium containing 3 mM L-arginine and 0.1 mM BH4 [(6R)-5,6,7,8-tetrahydrobiopterin]. Before experimental use, the cells (from second or third passage) were rinsed twice with Tyrode-HEPES buffer with 1.8 mM CaCl2).
EPA and DHA were purchased from Sigma-Aldrich (St. Louis, MO) and prepared initially in redistilled ethanol. Primary and secondary stock solutions were prepared and stored under nitrogen at −20° C.
HUVECs were treated with vehicle, EPA, or DHA (10 μM) for 2 hours, and then challenged with IL-6 (12 ng/mL) for 24 h hours. After incubation, cells were pelleted and frozen at −80° C. until proteomic analysis was performed.
Relative protein expression levels among the various treatments were measured using LC/MS proteomic techniques. Following protein digest, peptides are separated over a reverse phase column and then identified based on their mass.
Cell pellets were lysed using methanol/chloroform extraction. Proteins were denatured, reduced, alkylated, and trypsin digested. Samples were then prepared for Tandem Mass Tag (TMT) 10plex labeling. A bicinchoninic acid (BCA) assay was performed on each sample to quantify the total protein in each sample, which is important to confirm equal amounts of each sample are added to the multiplex sample. Each peptide in a sample was given a unique, low molecular weight (typically 126-130 Da), and then the samples were combined.
Each multiplexed sample was then fractionated to increase the overall protein coverage using high pH reversed phase fractionation and analyzed by LC/MS using a Dionex UltiMate 3000 RSLC in tandem with a Q-Exactive/Lumos Orbitrap Mass Spectrometer. The chromatography was performed using a 2-hour gradient on a Thermo Pepmap C18 column (100 Å pore size, 3.0 μm particle size, […]) set at 50° C. Mobile phase A was water with 0.1% formic acid, and mobile phase B was acetonitrile with 0.1% formic acid.
A bioinformatic package was applied to all the mass spectrometry intensity data known as Differential Enrichment analysis of Proteomics data (DEP) to process proteomic data (FIGS. 35-37).

[2] = tested on: pulmonary endothelial cells; experiment: IL-6 provoked-inflammation cell culture, proteomics; details: pulmonary endothelial cells provoked with IL-6
Description: (§1) FIG. 34B presents results from a provoked-inflammation cell-culture study with proteomics outcomes, wherein endothelial cells from various tissues were exposed to the inflammatory cytokine IL-6 in the absence or presence of EPA. […] Also of interest are related increases in proteins involved in the related antioxidant ferritin in vascular endothelial cells. Finally fatty acid desaturase 1 (FADS1) encodes the Δ5-desaturase enzyme and fatty acid desaturase 2 (FADS2) encodes the […] enzyme.
(§2) In a series of tissue culture experiments cells were provoked with IL-6 to induce an inflammatory and cellular injury response, and EPA added to determine whether it moderated proteins involved in injury responses. […] Thus, the proteomics results not only affirm the ability of EPA to promote HO-1, but also confirm the ability of EPA to inhibit […], corroborating the aforementioned ability of EtEPA to suppress the Δ5-desaturase index, for example.

[3] = tested on: vascular endothelial cells; experiment: as above; details: vascular endothelial cells provoked with IL-6
Description: as §1, §2

[4] = tested on: brain endothelial cells; experiment: as above; details: brain endothelial cells provoked with IL-6
Description: as §1, §2

[5] = tested on: Primary human lung microvascular endothelial cells (HMVEC-Ls, PECs); experiment: LC/MS proteomics of pulmonary endothelial cells exposed to air pollution particulate matter
Procedure: Primary human lung microvascular endothelial cells (HMVEC-Ls, PECs) were purchased from Lonza (Manassas, VA). Cells were cultured in complete endothelial cell growth medium and maintained at 37° C. in a 95% air/5% CO2 humidified incubator. Cells were supplied with fresh medium every other day and propagated by an enzymatic (trypsin) procedure. Cell culture medium also contained 2% FBS to facilitate fatty acid treatment.
EPA was purchased from Sigma-Aldrich (Saint Louis, MO) and solubilized in redistilled ethanol under nitrogen atmosphere and stored at −20° C.
Urban air particulate matter and fine particulate matter were purchased from Sigma-Aldrich (SRM 1648a), catalog #: NIST1648a3110 and NIST27863110. The mean particle diameters were 5.85 and 2.8 μm, respectively.
PECs were pre-treated with EPA (40 μM) for 2 hours in 2% FBS-containing medium and then challenged with urban particulate matter (50 μg/mL) for 2 hours. After 2 hours, media was washed out and HBSS buffer was added. After incubation, cells were pelleted and frozen at −80° C. until proteomic analysis was performed. Relative protein expression levels among the various treatments were measured using LC/MS proteomic techniques (FIG. 40).
Cell pellets were lysed using methanol/chloroform extraction. Proteins were then denatured, reduced, alkylated, and trypsin digested. Samples were labeled by Tandem Mass Tag (TMT) 10plex labeling to multiplex the samples and ensure that the injection, LC, and MS conditions are identical for each sample. A bicinchoninic acid (BCA) assay was performed to quantify the total protein in each sample. Each peptide in a sample was given a unique, low molecular weight (typically 126-130 Da), and then the samples were combined.
Each multiplexed sample was then fractionated to increase the overall protein coverage using high pH reversed phase fractionation and analyzed by LC/MS using a Dionex UltiMate 3000 RSLC in tandem with a Q-Exactive/Lumos Orbitrap Mass Spectrometer.
A ComBat function was applied to all mass spectrometry intensity data to correct for batch effects. The bioinformatic package Differential Enrichment analysis of Proteomics data (DEP) was used to process proteomic data and generate the figures.

[6] = 10 μM for 2 hours, then IL-6 (12 ng/mL) 24 h, vs IL-6 alone

## CC/C=C\C/C=C\C/C=C\C/C=C\C/C=C\C/C=C\CCC(=O)O [DHA, docosahexaenoic acid]
[1]; [6]
  GSR protein change: 1.2-fold increase,
  PRDX1 protein change: 1.1-fold increase,
  PRDX3 protein change: 1.1-fold increase,
  PRDX4 protein change: 1.5-fold increase
  PRDX5 protein change: 1.1-fold increase,
  PRDX6 protein change: 1.3-fold decrease
  TXN protein change: 1.2-fold increase,
[1]
  number of proteins whose expression was significantly repressed: 767 proteins
  number of proteins whose expression was significantly stimulated: 864 proteins

## CC/C=C\C/C=C\C/C=C\C/C=C\C/C=C\CCCC(=O)O [EPA, eicosapentaenoic acid]
[2]
  HO-1 protein, EPA+IL-6 vs IL-6 alone: 1.9 fold
[3]
  HO-1 protein, EPA+IL-6 vs IL-6 alone: 2.2 fold
[4]
  HO-1 protein, EPA+IL-6 vs IL-6 alone: 1.5 fold
[1]; [6]
  DDAH-1 protein change: 1.1-fold increase,
  DDAH-2 protein change: 1.1-fold increase,
  GSR protein change: 1.1-fold increase,
  PRDX1 protein change: 1.1-fold increase,
  PRDX2 protein change: 1.1-fold increase,
  PRDX5 protein change: 1.1-fold increase,
  TXN protein change: 1.2-fold increase,
[1]
  number of proteins whose expression was significantly repressed: 472 proteins
  number of proteins whose expression was significantly stimulated: 544 proteins
[5]; EPA (40 μM) relative to fine PMs
  number of proteins with significantly modulated expression: 205 proteins
[5]; EPA (40 μM) relative to urban PMs
  number of proteins with significantly modulated expression: 347 proteins
[5]; Fine PM vs EPA + Fine PM
  # of Proteins Decreased Expression by Treatment, Neutrophil Degranulation Pathway (GO: 0043312): 11
  # of Proteins Increased Expression by Treatment, Neutrophil Degranulation Pathway (GO: 0043312): 11
[5]; Urban PM vs EPA + Urban PM
  # of Proteins Decreased Expression by Treatment, Neutrophil Degranulation Pathway (GO: 0043312): 19
  # of Proteins Increased Expression by Treatment, Neutrophil Degranulation Pathway (GO: 0043312): 16
[5]; compared to fine PMs
  number of proteins associated with neutrophil degranulation modulated by EPA treatment: 22 proteins
[5]; compared to urban PMs
  number of proteins associated with neutrophil degranulation modulated by EPA treatment: 35 proteins

Reference: US20240165066A1, “LYMPH-RELEASING COMPOSITIONS OF FATTY ACIDS AND USES THEREOF FOR LYMPHATIC INCORPORATION AND SYSTEMIC DISEASE TREATMENT” (Amarin Pharmaceuticals Ireland Limited, priority 2022, published 2024)
